Test results reported in US20070270393A1, “Methods and compositions for modulation of sleep cycle” (priority 2006, published 2007).

How the values were obtained:
[1] = tested on: HPA axis activity in healthy control subject; assay: 2 days of a GR antagonist in healthy control subject under constant routine conditions, salivary cortisol; assay type: in vivo, human; details: 400 mg for two consecutive days, single healthy subject, FIG. 5
Experimental: In a separate experiment, the longitudinal effects of 2 days of a GR antagonist on melatonin and HPA axis activity was measured in healthy control subject during an inpatient stay under constant routine conditions. […] Salivary cortisol, ACTH and dim light melatonin were measured the evening/morning before and on the second evening/morning of medication. The design was created to include measures of the phase of night-time DLMO as well as measures of the morning response of the HPA axis, including timing of cortisol acrophase. The design was formulated to ascertain circadian phase shifting in a controlled setting with healthy subjects (as might occur in jet-lag or shift work). […] Salivary melatonin samples were insufficient.

[2] = biological target: T1, glucocorticoid (GR) receptors (Homo sapiens, UniProt P04150); details: literature; cited from earlier work
T1 sequence (P04150 1-777): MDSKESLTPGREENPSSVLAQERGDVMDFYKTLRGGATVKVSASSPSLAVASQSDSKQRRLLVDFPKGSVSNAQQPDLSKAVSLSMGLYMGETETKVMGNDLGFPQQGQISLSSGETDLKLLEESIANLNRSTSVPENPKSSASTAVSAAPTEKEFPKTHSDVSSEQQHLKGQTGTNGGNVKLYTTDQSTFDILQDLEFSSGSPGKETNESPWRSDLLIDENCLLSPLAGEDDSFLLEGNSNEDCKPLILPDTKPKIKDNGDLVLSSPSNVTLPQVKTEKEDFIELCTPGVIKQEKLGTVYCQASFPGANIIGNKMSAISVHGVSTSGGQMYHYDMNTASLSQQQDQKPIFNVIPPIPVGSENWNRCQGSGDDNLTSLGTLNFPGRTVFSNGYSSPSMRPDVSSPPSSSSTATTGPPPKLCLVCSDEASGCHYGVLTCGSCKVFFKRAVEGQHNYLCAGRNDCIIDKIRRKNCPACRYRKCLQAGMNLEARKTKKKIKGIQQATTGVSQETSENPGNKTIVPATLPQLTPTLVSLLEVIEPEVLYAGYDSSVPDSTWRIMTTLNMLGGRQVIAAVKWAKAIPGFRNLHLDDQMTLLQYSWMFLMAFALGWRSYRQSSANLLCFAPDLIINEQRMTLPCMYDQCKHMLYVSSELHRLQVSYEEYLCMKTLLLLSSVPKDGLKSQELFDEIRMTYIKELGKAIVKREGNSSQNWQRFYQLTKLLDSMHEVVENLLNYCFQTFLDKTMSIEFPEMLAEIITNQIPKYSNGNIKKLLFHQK

## CC#C[C@]1(O)CC[C@H]2[C@@H]3CCC4=CC(=O)CCC4=C3[C@@H](c3ccc(N(C)C)cc3)C[C@@]21C [mifepristone, 17-beta-hydroxy-11-beta-(4-dimethyl-aminophenyl)-17-alpha-(1-propynyl)-estra-4,9-dien-3-one]
[1]
  cortisol: rise
  timing of the morning acrophase of cortisol: delay
[2]
  antagonist of glucocorticoid (GR) receptors: powerful antagonist
